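Method: 48-hour compound exposure of cells in 96-well plates, five concentrations, linear interpolation of endpoints. TGI marks complete inhibition of growth.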
Assays:
Test in all cases: NCI-60 cell line screen, 48 h
EKVX NSCLC = test system: EKVX NSCLC
MOLT-4 leukemia = test system: MOLT-4 leukemia
T-47D breast = test system: T-47D breast
RXF 393 renal = test system: RXF 393 renal
HOP-62 NSCLC = test system: HOP-62 NSCLC
HS 578T breast = test system: HS 578T breast
SF-268 CNS = test system: SF-268 CNS
UO-31 renal = test system: UO-31 renal
PC-3 prostate = test system: PC-3 prostate
HCT-116 colon = test system: HCT-116 colon
K-562 leukemia = test system: K-562 leukemia
COLO 205 colon = test system: COLO 205 colon
HT29 colon = test system: HT29 colon
MALME-3M melanoma = test system: MALME-3M melanoma
SNB-19 CNS = test system: SNB-19 CNS
SK-MEL-5 melanoma = test system: SK-MEL-5 melanoma
CCRF-CEM leukemia = test system: CCRF-CEM leukemia
SNB-75 CNS = test system: SNB-75 CNS
MCF7 breast = test system: MCF7 breast
A498 renal = test system: A498 renal
U251 CNS = test system: U251 CNS
OVCAR-3 ovarian = test system: OVCAR-3 ovarian
MDA-N = test system: MDA-N
NCI-H23 lung = test system: NCI-H23 lung
ACHN renal = test system: ACHN renal
SK-OV-3 ovarian = test system: SK-OV-3 ovarian
RPMI-8226 leukemia = test system: RPMI-8226 leukemia
IGROV1 ovarian = test system: IGROV1 ovarian
MDA-MB-435 = test system: MDA-MB-435
CAKI-1 renal = test system: CAKI-1 renal
OVCAR-8 ovarian = test system: OVCAR-8 ovarian
DU-145 prostate = test system: DU-145 prostate
NCI/ADR-RES ovarian = test system: NCI/ADR-RES ovarian
M14 melanoma = test system: M14 melanoma
SK-MEL-2 melanoma = test system: SK-MEL-2 melanoma
SF-295 CNS = test system: SF-295 CNS
BT-549 breast = test system: BT-549 breast
HCC-2998 colon = test system: HCC-2998 colon
OVCAR-5 ovarian = test system: OVCAR-5 ovarian
MDA-MB-231 breast = test system: MDA-MB-231 breast
SR leukemia = test system: SR leukemia
NCI-H460 lung = test system: NCI-H460 lung
SN12C renal = test system: SN12C renal
786-0 renal = test system: 786-0 renal
LOX IMVI melanoma = test system: LOX IMVI melanoma
OVCAR-4 ovarian = test system: OVCAR-4 ovarian
SW-620 colon = test system: SW-620 colon
UACC-62 melanoma = test system: UACC-62 melanoma
SK-MEL-28 melanoma = test system: SK-MEL-28 melanoma
HCT-15 colon = test system: HCT-15 colon
A549 NSCLC = test system: A549 NSCLC
NCI-H522 lung = test system: NCI-H522 lung
HL-60(TB) leukemia = test system: HL-60(TB) leukemia
UACC-257 melanoma = test system: UACC-257 melanoma
SF-539 CNS = test system: SF-539 CNS
NCI-H226 lung = test system: NCI-H226 lung
HOP-92 NSCLC = test system: HOP-92 NSCLC

Measured: TGI

N#C[C@@H](c1ccccn1)c1ncccc1[N+](=O)[O-]
> 100 µM: EKVX NSCLC | MOLT-4 leukemia | T-47D breast | RXF 393 renal | HOP-62 NSCLC | HS 578T breast | SF-268 CNS | UO-31 renal | PC-3 prostate | HCT-116 colon | K-562 leukemia | COLO 205 colon | HT29 colon | MALME-3M melanoma | SNB-19 CNS | SK-MEL-5 melanoma | CCRF-CEM leukemia | SNB-75 CNS | MCF7 breast | A498 renal | U251 CNS | OVCAR-3 ovarian | MDA-N | NCI-H23 lung | ACHN renal | SK-OV-3 ovarian | RPMI-8226 leukemia | IGROV1 ovarian | MDA-MB-435 | CAKI-1 renal | OVCAR-8 ovarian | DU-145 prostate | NCI/ADR-RES ovarian | M14 melanoma | SK-MEL-2 melanoma | SF-295 CNS | BT-549 breast | HCC-2998 colon | OVCAR-5 ovarian | MDA-MB-231 breast | SR leukemia | NCI-H460 lung | SN12C renal | 786-0 renal | LOX IMVI melanoma | OVCAR-4 ovarian | SW-620 colon | UACC-62 melanoma | SK-MEL-28 melanoma | HCT-15 colon | A549 NSCLC | NCI-H522 lung

Nc1ccc(Cc2c(N)[nH]c(=O)[nH]c2=O)cc1
> 100 µM: MOLT-4 leukemia | HL-60(TB) leukemia | T-47D breast | HS 578T breast | SF-268 CNS | UO-31 renal | UACC-257 melanoma | PC-3 prostate | HCT-116 colon | K-562 leukemia | COLO 205 colon | HT29 colon | MALME-3M melanoma | SNB-19 CNS | SK-MEL-5 melanoma | CCRF-CEM leukemia | MCF7 breast | A498 renal | U251 CNS | OVCAR-3 ovarian | MDA-N | NCI-H23 lung | ACHN renal | SK-OV-3 ovarian | RPMI-8226 leukemia | MDA-MB-435 | CAKI-1 renal | OVCAR-8 ovarian | DU-145 prostate | NCI/ADR-RES ovarian | SF-539 CNS | M14 melanoma | SK-MEL-2 melanoma | SF-295 CNS | BT-549 breast | HCC-2998 colon | OVCAR-5 ovarian | MDA-MB-231 breast | NCI-H460 lung | SN12C renal | 786-0 renal | LOX IMVI melanoma | OVCAR-4 ovarian | SW-620 colon | UACC-62 melanoma | SK-MEL-28 melanoma | HCT-15 colon | NCI-H226 lung | A549 NSCLC | NCI-H522 lung | HOP-92 NSCLC

— PubChem BioAssay (NCI)
